The text below walks through data of US9889180B2, “Method of treating cancer” (Agency for Science, Technology and Research, priority 2012, dated 2018).

“Also recorded” adds a separate entry of the source.

Holding throughout (assay type): cell-based, human
Series [1] has as its system IFNGR1 expression and IFN-γ-STAT1 signaling. Put plainly: qRT-PCR and western blot of IFNGR1 expression and IFN-γ signaling in DU145 cells. The method, then:
All cells were maintained at 37° C. with 5% CO2. Cells were grown until they were 80% confluent before they are treated the respective drugs. For drug treatment, DZNep and GSK126 were purchased from Pharmaron Inc. (Beijing, China), GSK343 was kindly provided by Chemical Probes of University of Toronto, 5′Aza, TSA and human recombinant IFN-γ was purchased from Sigma. For rescue experiment using IFNGR1 blocking antibody, the neutralizing antibody that specifically targets IFNGR1 (anti-CD119, GIR-208, BD Pharmingen) was added to the medium 4 hour prior to the addition of DZNep or/and IFN-γ. Total RNA was isolated by using Trizol (Invitrogen) and purified with the RNeasy Mini Kit (Qiagen). The microarray hybridization was performed using the Illumina Gene Expression Sentrix BeadChip HumanRef-8_V3, and data analysis was performed by GeneSpring software from Agilent Technologies as described previously. The analyzed gene sets by GeneSpring were next subjected to Ingenuity Pathway Analysis (IPA) for gene ontology (GO) analysis. Reverse transcription and quantitative PCR assays were performed using High Capacity cDNA Archive kit and KAPA SyBr Fast qPCR kit (KAPA biosystems). For quantification of mRNA levels, 18S level was used as an internal control. All reactions were analyzed in an Applied Biosystems PRISM 7500 Fast Real-Time PCR system in 96-well plate format. Western Blotting was performed as described previously. Briefly, Cells were scraped, collected, and lysed in RIPA buffer. To release histones from chromatin, cell lysates were further sonicated for 15 sec using a XL2000 Microson Ultrasonic Processor (Misonix). Equal amounts of protein (30 μg) were separated on SDS-polyacrylamide gels and transferred to PVDF membranes. The blots were probed with antibodies against EED (07-368), SUZ12 (07-379), trimethylated H3-K27 (07-449), Acetyl-Histone H3 (06-599), which were purchased from Upstate Biotechnology. IFNGR1 (GIR-94) and anti-IFI16 (1G7) were purchased from Santa Cruz. EZH2 phospho S21 (00388) was purchased from Bethyl Laboratories. EZH2 (AC22), P110α PI3K, p-AKT (T308), p-AKT (S473), pSTAT1Y701, total STAT1, Histone H3 (3H1), Beclin-1 and cleaved PARP were purchased from Cell Signaling. Myc and Actin were purchased from Roche Applied Science and Sigma-Aldrich, respectively.
On the technique in general: In qPCR the cycle at which signal appears reflects the starting amount.

Series [2] has as its system IFNGR1 expression. Description: qRT-PCR of IFNGR1 in MDA-MB-231 cells. Particulars: ER− basal like MDA-MB-231 cells. The method, then:
(§1) Total RNA was isolated by using Trizol (Invitrogen) and purified with the RNeasy Mini Kit (Qiagen). The microarray hybridization was performed using the Illumina Gene Expression Sentrix BeadChip HumanRef-8_V3, and data analysis was performed by GeneSpring software from Agilent Technologies as described previously. The analyzed gene sets by GeneSpring were next subjected to Ingenuity Pathway Analysis (IPA) for gene ontology (GO) analysis. Reverse transcription and quantitative PCR assays were performed using High Capacity cDNA Archive kit and KAPA SyBr Fast qPCR kit (KAPA biosystems). For quantification of mRNA levels, 18S level was used as an internal control. All reactions were analyzed in an Applied Biosystems PRISM 7500 Fast Real-Time PCR system in 96-well plate format.
Western Blotting was performed as described previously. Briefly, Cells were scraped, collected, and lysed in RIPA buffer. To release histones from chromatin, cell lysates were further sonicated for 15 sec using a XL2000 Microson Ultrasonic Processor (Misonix). Equal amounts of protein (30 μg) were separated on SDS-polyacrylamide gels and transferred to PVDF membranes. The blots were probed with antibodies against EED (07-368), SUZ12 (07-379), trimethylated H3-K27 (07-449), Acetyl-Histone H3 (06-599), which were purchased from Upstate Biotechnology. IFNGR1 (GIR-94) and anti-IFI16 (1G7) were purchased from Santa Cruz. […]

Series [3] relates to IFNGR1 expression and STAT1 activation. Description: qRT-PCR and western blot of IFNGR1 and IFN signaling in MCF7 cells. Particulars: for IFNGR1 expression: ER+ luminal MCF7 cells. The method, then:
as §1
Western Blotting was performed as described previously. Briefly, Cells were scraped, collected, and lysed in RIPA buffer. To release histones from chromatin, cell lysates were further sonicated for 15 sec using a XL2000 Microson Ultrasonic Processor (Misonix). Equal amounts of protein (30 μg) were separated on SDS-polyacrylamide gels and transferred to PVDF membranes. The blots were probed with antibodies against EED (07-368), SUZ12 (07-379), trimethylated H3-K27 (07-449), Acetyl-Histone H3 (06-599), which were purchased from Upstate Biotechnology. IFNGR1 (GIR-94) and anti-IFI16 (1G7) were purchased from Santa Cruz. EZH2 phospho S21 (00388) was purchased from Bethyl Laboratories. EZH2 (AC22), P110α PI3K, p-AKT (T308), p-AKT (S473), pSTAT1Y701, total STAT1, Histone H3 (3H1), Beclin-1 and cleaved PARP were purchased from Cell Signaling. Myc and Actin were purchased from Roche Applied Science and Sigma-Aldrich, respectively.

Series [4] relates to DU145 cells. Put plainly: FACS sub-G1 DNA analysis (apoptosis) in DU145 cells. Particulars: for apoptosis (sub-G1) after knockdown: siRNA knockdown in combination with IFN-γ. The method, then:
For the assessment of cell death, cells were harvested in 70% ethanol. Fixed cells were stained with Propidium Iodide (P.I) (50 μg/mL). The stained cells were analyzed for DNA content by FACS in a FACSCalibur (Becton Dickinson Instrument). % of cell death was defined as the sub-G1 population quantified using the CellQuest software (Becton Dickinson). The percentage of dead cells or sub-G1 cells was calculated by comparing the results of each experiment to the results from DMSO-treated cells. Each assay was repeated a minimum of three times, with results reported as means+s.e.m.

For series [5], the system named is IFNGR1 expression. Put plainly: qRT-PCR of IFNGR1 and IFNAR1 in RWPE1-MYC cells. The method, then: Target-specific siRNA and non-targeting control siRNA were purchased from 1st Base Singapore and Integrated DNA technologies (IDT) with the following target sequences respectively: EZH2 siRNA: 5′-GACUCUGAAUGCAGUUGCU-3′ (SEQ ID NO: 1); MYC siRNA: 5′-[…]-3′ (SEQ ID NO:2). All siRNA were designed by 1st Base Singapore and IDT respectively. For transfection, 30 nM siRNAs were used to transfect cells. 48 h after transfection cell pellets were collected and subjected indicated assays.
as §1

The mark [6] stands for this setting: in response to IFN-γ stimulation.

For the compound `Cl.Nc1nccc2c1ncn2[C@@H]1C=C(CO)[C@@H](O)[C@H]1O` [DZNep, (−)-1-[(1R,4R,5S)-3-(Hydroxymethyl)-4,5-dihydroxy-2-cyclopenten-1-yl]4-aminoimidazo[4,5-c]pyridine hydrochloride], the “expression of IFN genes” value in series [1] (DZNep (2.5 μM) combined with IFN-γ) is recorded as “strong inductions of IFN genes”. Besides, the STAT1 phosphorylation entry in series [1] (DZNep (2.5 μM) combined with IFN-γ, 3 days) was “strong inductions”. Further, the IFNGR1 expression entry in series [1] (DZNep (2.5 μM), 3 days, hydrochloride) was “induced the expression of IFNGR1; also recorded: induced a marked expression of IFNGR1”; in series [2], “not seen”; in series [3] (hydrochloride), “induction of IFNGR1 at both mRNA and protein levels; also recorded: restored the IFNGR1 expression”. The IFNAR1 expression result in series [1] (DZNep treatment) was “did not change IFNAR1 expression”. The “STAT1 activation and PARP cleavage” value in series [3] (MCF-7 cells, DZNep co-treated with IFN-γ) was “increased STAT1 activation and PARP cleavage”. Moreover, the “apoptosis (sub-G1)” value in series [4] (DZNep (2.5 μM) combined with increasing doses of IFN-γ, 3 days) is recorded as “synergistic induction of cell death”.

With “EZH2 knockdown: EZH2 siRNA: 5′-GACUCUGAAUGCAGUUGCU-3′ (SEQ ID NO: 1) (other strand not given here)”, the “IFNGR1 protein expression after knockdown” value in series [1] is “restored the IFNGR1 protein expression”. In addition, in series [1] (setting [6]), the “STAT1 phosphorylation and IFI16 expression after knockdown” value was “enhanced the STAT1 phosphorylation and the expression of IF116”. Also, in series [1] (setting [6]), the “activation of IFN genes after knockdown” value is listed as “robust activation of IFN genes”. In addition, the “IFNGR1 expression after knockdown” value in series [5] is “restore the expression of IFNGR1”. The IFNGR1 expression entry was “not seen” in series [2]; “induction of IFNGR1 at both mRNA and protein levels” in series [3]. Besides, the “apoptosis (sub-G1) after knockdown” value was “apoptosis induction” in series [4] and “specifically enhances IFN-γ mediated cell death” in series [4] (listed as siEZH2).
